Reference: publication PMC10650714, “Double Attack to Oxidative Stress in Neurodegenerative Disorders: MAO-B and Nrf2 as Elected Targets” (Molecules, 2023)
Structures can show the parent of a compound that is named as a salt.

Experiments:
recombinant hMAO-B = biological target: T1, recombinant hMAO-B (Homo sapiens, UniProt P27338); assay: hMAO-B activity assay (kynuramine, fluorimetric); format: biochemical; conditions: for SI (selectivity index): calculated as hMAO-A Ki/hMAO-B Ki; for Ki: kynuramine [S] = 10 µM, pH 7.4, 37 °C, mean ± S.D., read-out: hMAO-B Ki
T1 construct: purchased Fluka-Sigma-Aldrich s.r.l; (Italy); host or cells: Baculovirus infected BT1 cells
T1 sequence (P27338 1-520): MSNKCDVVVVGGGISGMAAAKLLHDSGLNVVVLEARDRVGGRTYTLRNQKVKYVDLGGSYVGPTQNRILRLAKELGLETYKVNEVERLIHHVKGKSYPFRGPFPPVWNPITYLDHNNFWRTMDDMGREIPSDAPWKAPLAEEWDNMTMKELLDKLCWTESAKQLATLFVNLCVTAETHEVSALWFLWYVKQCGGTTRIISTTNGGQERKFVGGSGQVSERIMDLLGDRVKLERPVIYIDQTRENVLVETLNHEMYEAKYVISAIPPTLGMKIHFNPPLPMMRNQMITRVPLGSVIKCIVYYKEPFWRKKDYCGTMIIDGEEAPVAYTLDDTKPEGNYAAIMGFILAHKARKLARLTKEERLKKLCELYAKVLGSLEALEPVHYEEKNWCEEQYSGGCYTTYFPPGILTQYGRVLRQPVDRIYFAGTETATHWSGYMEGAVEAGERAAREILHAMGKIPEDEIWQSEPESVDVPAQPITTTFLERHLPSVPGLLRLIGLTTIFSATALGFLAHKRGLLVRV
Protocol: (§1) Human recombinant hMAO-A and hMAO-B expressed in Baculovirus infected BT1 cells (5 mg/mL) and horseradish peroxidases were purchased from Fluka-Sigma-Aldrich s.r.l. (Italy). A Cary Eclipse fluorimeter (Varian Inc., Palo Alto, CA, USA) was used for fluorescence measurements. […] At first, the peroxidase-coupled continuous assay that detect the H2O2 generation rate was considered. It uses the Amplex Red reagent as the fluorogenic substrate for horseradish peroxidase.
(§2) By applying this method, hMAO activity assays were performed in K/Pi 0.1 M, EDTA 1 mM (total volume: 200 μL; pH 7.4, T = 37 °C), in the presence and in absence of various concentrations of the different compounds (0.2–20 μM and 2–50 μM in the case of hMAO–B and hMAO-A, respectively).
(§3) MAOs stock solutions were diluted with assay buffer in the presence or absence of the tested compound to obtain a final concentration of 0.005 mg/mL for MAO-A and 0.010 mg/mL for MAO-B; then, kynuramine (10–300 μM final concentration) was added to the assay solution. After 45–60 min of incubation at 37 °C, the reaction was stopped by the addition of 2 M NaOH (80 μL) and 480 μL of distilled water. Kynuramine deaminated by MAO spontaneously cyclizes to provide 4-hydroxyquinoline, the amount of which was determined by the fluorescence intensity of the peak of its emission spectra (λexc = 330 nm and λem 330–530 nm). Then, the rate of reaction was calculated using a specific calibration curve (in the presence of the same amount of the tested compound) built with the standard 4-hydroxyquinoline.
(§4) Under these experimental conditions, the Michaelis–Menten equation for rate of reaction, can be simplified as follows: V ≈ (Vmax/KM) [E]0[S]0 [49]. In the presence of an inhibitor, one or both the kinetic parameters, KM and Vmax, might be affected by its presence, depending on the inhibition mechanism. In particular, in the presence of a reversible inhibitor, both the kinetic parameters could be affected, and the apparent kinetic parameter would then become: KM I = KM,0 (1 + [I]/Ki)/(1 + [I]/(αKi)), and VmaxI = Vmax0/(1 + [I]/(αKi)), where α is the factor indicating how much the dissociation constant of the enzyme-substrate-I complex is different from that of the enzyme–I complex (also named Ki). Consequently, the ratio of the initial rate of reaction in the absence (Vo) and in the presence (VI) of the tested compound (Vo/VI) can be simplified to the ratio of (Vmax/KM)o/(Vmax/KM)I ≈ (1 + [I]/Ki).
(§5) To study the mechanism of inhibition, the steady-state kinetic parameters (Vmax and Km) of MAO-A and MAO-B were determined by performing experiments at different substrate concentrations and in the absence and presence of different concentrations of the tested compound. Vmax and Km were calculated by fitting the Michaelis–Menten equation to the experimental data (initial rate of reactions vs. substrate concentrations), with Sigma Plot software, version 9.0 (Jandel Scientific, San Rafael, CA, USA).

recombinant hMAO-A = biological target: T2, recombinant hMAO-A (Homo sapiens, UniProt P21397); assay: hMAO-A activity assay (kynuramine, fluorimetric); format: biochemical; conditions: kynuramine [S] = 10 µM, pH 7.4, 37 °C; mean ± S.D.; read-out: hMAO-A Ki
T2 construct: purchased Fluka-Sigma-Aldrich s.r.l; (Italy); host or cells: Baculovirus infected BT1 cells
T2 sequence (P21397 1-527): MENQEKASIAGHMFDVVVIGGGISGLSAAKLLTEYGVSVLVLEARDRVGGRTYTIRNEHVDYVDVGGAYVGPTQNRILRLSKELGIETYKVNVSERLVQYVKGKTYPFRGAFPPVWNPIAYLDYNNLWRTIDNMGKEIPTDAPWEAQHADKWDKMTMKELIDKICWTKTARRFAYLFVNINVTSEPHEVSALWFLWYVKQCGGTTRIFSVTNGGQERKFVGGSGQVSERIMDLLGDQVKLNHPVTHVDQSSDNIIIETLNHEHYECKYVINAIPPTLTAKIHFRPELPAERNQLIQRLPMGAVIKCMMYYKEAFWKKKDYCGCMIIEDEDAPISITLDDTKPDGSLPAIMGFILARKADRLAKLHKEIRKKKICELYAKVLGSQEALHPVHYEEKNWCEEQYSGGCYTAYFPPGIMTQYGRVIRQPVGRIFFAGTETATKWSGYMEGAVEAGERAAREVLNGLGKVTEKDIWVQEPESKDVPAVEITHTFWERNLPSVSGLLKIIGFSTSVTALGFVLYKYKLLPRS
Protocol: as §1, §2, §3, §4, §5

[1] = test system: ROS production in HepG2 cells; assay: Intracellular ROS generation rate (DCF-DA); format: cell-based, human; conditions: 5 µM, antimycin A 10 µM, 30 min
Protocol: Thus, on the basis of the hMAO-B inhibitory potency and on the Nrf2 nuclear translocation results, the most promising compounds 2 and 3 were chosen for the evaluation of their antioxidant activity in the human hepatic HepG2 cells, a valuable cellular system to assess antioxidant properties of the compounds [43, 44]. CAPE and pioglitazone were also tested as reference compounds. HepG2 cells were pre-loaded with dichlorofluorescein diacetate (DCF-DA), a fluorescent probe to detect ROS generation. […] Immediately, antimycin A (10 µM), an inhibitor of the complex III of the mitochondrial electron transport chain, was also added as an ROS inducer. The oxidation rate of DCF, that is, the generation rate of ROS, was detected for 30 min, and for each sample, the corresponding control was also run.
HepG2 cells (human hepatocellular carcinoma) were purchased from the American Type Culture Collection (ATCC HB-8065). Cells were grown in MEM (M0894, Merck Life Sciences S.r.l., Milan, Italy) supplemented with 2.2 g/L NaHCO3 (S5761, Merck Life Sciences S.r.l., Milan, Italy), 100 U/mL penicillin, 100 μg/mL streptomycin and 0.25 μg/mL amphotericin B (A5955, Merck Life Sciences S.r.l., Milan, Italy) and 10% foetal calf serum (F7524, Merck Life Sciences S.r.l., Milan, Italy). Cells were cultured at 37 °C in a humidified atmosphere incubator containing 5% carbon dioxide in air.
The intracellular production of ROS was detected via a fluorometric method using 2′,7′-dichlorofluorescein diacetate (D6883, Merck Life Sciences S.r.l., Milan, Italy) as probe. HepG2 cells (6 × 10^3/well) were seeded into a 96-well culture plate in 200 µL of a complete growth medium and incubated for 48 h in standard conditions. The medium was then removed, and cells were washed with 5 mM of PBS–glucose. Then, cells were loaded with 10 μM of 2′,7′-dichlorofluorescein diacetate in 5 mM of PBS–glucose at 37 °C in the dark for 20 min, washed with 5 mM of PBS–glucose, treated with the test compounds at indicated concentrations in 5 mM of PBS–glucose and then analysed. Fluorescence intensity was recorded for 30 min at λemx = 485 nm and λem = 527 nm, using a Victor X3 Multilabel plate reader (Perkin Elmer). The rate of ROS generation was calculated relative to untreated cells (controls) after subtraction of autofluorescence value. Results were presented as the mean values of at least three independent experiments performed with six replicates.

[2] = test system: Nrf2 nuclear translocation in SH-SY5Y cells; assay: Nrf2 nuclear translocation (Western blot of nuclear extracts); format: cell-based, human; conditions: 5 μM, 3 h
From the text: In physiological conditions, the repressor Keap1 traps Nrf2 at the cytosolic level, preventing the activation of Nrf2 pathway. The disruption of Keap1–Nrf2 interaction allows for Nrf2 nuclear translocation, thus resulting in the transcriptional activation of its target cytoprotective genes. […] We and others have previously developed several compounds bearing caffeic and ferulic fragments able to activate Nrf2 in terms of the up-regulation of Nrf2 expression, translocation into the nucleus and induction of the Nrf2-dependent defensive genes, with (pro)electrophilic features emerging as key players. Herein, to analyse the effect of the new molecules on the Nrf2 downstream cascade, the ability of compounds 1–5 to increase Nrf2 nuclear translocation was preliminary evaluated as a pivotal step in Nrf2 signalling activation (Figure 6). Based on MAO-B inhibitory potency and cell toxicity assay, compounds were studied in SH-SY5Y human neuroblastoma cells at the concentration of 5 μM. Given the high structural analogy with our derivatives, we selected the well-known Nrf2 inducer CAPE [37, 38] as the reference compound, and verified its ability to induce Nrf2 nuclear translocation at different concentrations, ranging from 5 µM to 50 µM in our experimental model (Figure S6). Nrf2 nuclear content was assessed via Western blot analysis. […] Consistently, data from literature highlight discrepancies about pioglitazone-mediated Nrf2 activation, indicating its ability to activate Nrf2 in longer timeframes and different in vitro and in vivo experimental conditions. […] The preliminary docking performed on human Keap-1 confirms the excellent positioning of compound 2 within the BTB domain pocket, where cysteine 151 is located (see Figure S5). […] Particularly, all these new molecules hold the characteristic (pro)electrophilic fragments, which however, in this case, resulted to be insufficient to activate Nrf2, as reported for other ferulic and caffeic derivatives. In this regard, optimal target interaction might play a major role, but further biological investigations are needed to fully clarify the mechanism of Nrf2 activation and the effect on the downstream expression of cytoprotective genes.
SH-SY5Y cells (5 × 106) were seeded in […] dishes and treated for 3 h with 5 μM compounds; afterward, the medium was removed, and cells were washed twice with ice-cold PBS. Cells were subsequently homogenized 15 times using a glass−glass Dounce homogenizer in 0.32 M sucrose, buffered with 20 mM Tris- HCl (pH 7.4), containing 2 mM EDTA, 0.5 mM EGTA, 50 mM β-mercaptoethanol and 20 μg/mL leupeptin, apotrinin and pepstatin. The homogenate was centrifuged at 300× g for 5 min to obtain the nuclear fraction. An aliquot of the nuclear fraction was used for protein assay via the Bradford method, whereas the remaining was boiled for 5 min after dilution with sample buffer and subjected to polyacrylamide gel electrophoresis and immunoblotting, as described.

Compound | melting point | decrease in hMAO-B inhibitory potency in comparison with pioglitazone (recombinant hMAO-B) | SI (selectivity index) (recombinant hMAO-B) | Ki (recombinant hMAO-B) | Ki (recombinant hMAO-A) | effect on antimycin A-induced ROS [1] | Nrf2 nuclear translocation [2]
COC(=O)/C=C/C(=O)Oc1ccc(CC2SC(=O)NC2=O)cc1 (centres unmarked) (as salt: fumarate) [Compound 1, 4-((2,4-Dioxothiazolidin-5-yl)methyl)phenyl Methyl Fumarate] | 150 to 151 °C |  |  |  |  |  | 
COC(=O)/C=C/C(=O)Oc1ccc(CC2SC(=O)NC2=O)cc1 (centres unmarked) [Compound 1, 4-((2,4-Dioxothiazolidin-5-yl)methyl)phenyl Methyl Fumarate] |  | 50 times | 8.0 | 3.14 ± 0.2 µM | 25 ± 4 µM |  | 
COc1cc(/C=C/C(=O)Oc2ccc(CC3SC(=O)NC3=O)cc2)ccc1O (centres unmarked) [Compound 3, 4-((2,4-Dioxothiazolidin-5-yl)methyl)phenyl (E)-3-(4-hydroxy-3-methoxyphenyl)acrylate] | 155 to 156 °C |  | 32.3 | 0.99 ± 0.15 µM | 32 ± 2 µM | almost abolish the effect of antimycin A stimulus | 
O=C(/C=C/c1ccc(O)c(O)c1)Nc1ccc(CC2SC(=O)NC2=O)cc1 (centres unmarked) [Compound 4, (E)-3-(3,4-Dihydroxyphenyl)-N-(4-((2,4-dioxothiazolidin-5-yl)methyl)phenyl)acrylamide] | 148 to 149 °C |  | 15.6 | 2.5 ± 1 µM | 39 ± 5 µM |  | promoted Nrf2 translocation at a lower extent
COc1cc(/C=C/C(=O)Nc2ccc(CC3SC(=O)NC3=O)cc2)ccc1O (centres unmarked) [Compound 5, (E)-N-(4-((2,4-Dioxothiazolidin-5-yl)methyl)phenyl)-3-(4-hydroxy-3-methoxyphenyl)acrylamide] | 151 to 152 °C |  | 14.2 | 3.3 ± 1 µM | 47 ± 4 µM |  | promoted Nrf2 translocation at a lower extent
